Test [1] concerns IFNγ-induced STAT1 phosphorylation (pSTAT1) in B16F10 cells. Nature of the test: B16F10 Phospho-STAT1 HTRF proximal pharmacodynamic (PD) assay. Type of test: cell-based, murine. Conditions: B16-F10; B16F10 cells, 3 hours compound, 100 nM mouse IFNγ 10 minutes; read-out: B16F10 IFNγ Induced pSTAT1 EC50. In a few lines: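 B16F10 cells in phenol red-free DMEM/10% FBS were dosed for 3 h at 37 °C in a 10-point, 3-fold series from 50 μM, then stimulated with 100 nM mouse IFNγ for 10 min and stopped with 3.3 μM staurosporine. pSTAT1 in lysates was measured by HTRF (665 nm emission), and EC50s were fitted from dose-response curves.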

In test [2] the target is His tagged PTPN2 (TC45) protein (Homo sapiens (Human), UniProt P17706). Kind of test: PTPN2 Mobility Shift Assay (MSA). Type of test: biochemical. Conditions: enzyme 0.5 nM, substrate 2 μM. The gist of the method: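 His-tagged human PTPN2 (TC45), 0.5 nM, preincubated with compound (12-point, 1:3) 10 min at room temperature in HEPES pH 7.5 buffer with EDTA, EGTA, DTT. Dephosphorylation of 2 μM fluorescent phospho-insulin-receptor peptide over 10 min read by mobility shift; IC50 from % inhibition.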
Sequence of His tagged PTPN2 (TC45) protein (P17706 other isoform, or with tags, fused parts or gaps): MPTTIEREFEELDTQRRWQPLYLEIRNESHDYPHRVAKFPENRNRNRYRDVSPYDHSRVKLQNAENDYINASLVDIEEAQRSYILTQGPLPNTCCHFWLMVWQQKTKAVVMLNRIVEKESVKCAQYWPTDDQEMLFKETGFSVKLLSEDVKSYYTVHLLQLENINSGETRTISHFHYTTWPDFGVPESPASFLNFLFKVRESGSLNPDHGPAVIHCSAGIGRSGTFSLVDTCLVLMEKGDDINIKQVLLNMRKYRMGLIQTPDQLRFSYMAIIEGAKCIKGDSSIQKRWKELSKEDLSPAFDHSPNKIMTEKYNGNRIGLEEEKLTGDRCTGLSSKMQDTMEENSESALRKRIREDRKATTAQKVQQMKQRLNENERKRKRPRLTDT

In test [3] the target is His tagged full-length PTPN1 protein (Homo sapiens (Human), UniProt P18031). Nature of the test: PTPN1 Mobility Shift Assay (MSA). Type of test: biochemical. Particulars: enzyme 0.5 nM, substrate 2 μM. The gist of the method:
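Enzyme at 0.5 nM was preincubated with compound (12-point, 1:3 dilution) for 10 min at room temperature in pH 7.5 HEPES buffer with EDTA, EGTA and DTT. OG488-labelled phosphorylated insulin-receptor peptide at 2 µM was then added for 10 min. After quench, % substrate dephosphorylation was read by mobility shift, and IC50 came from % inhibition.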

Bounds are passed on as bounds.

Sequence of His tagged full-length PTPN1 protein (P18031 whole entry): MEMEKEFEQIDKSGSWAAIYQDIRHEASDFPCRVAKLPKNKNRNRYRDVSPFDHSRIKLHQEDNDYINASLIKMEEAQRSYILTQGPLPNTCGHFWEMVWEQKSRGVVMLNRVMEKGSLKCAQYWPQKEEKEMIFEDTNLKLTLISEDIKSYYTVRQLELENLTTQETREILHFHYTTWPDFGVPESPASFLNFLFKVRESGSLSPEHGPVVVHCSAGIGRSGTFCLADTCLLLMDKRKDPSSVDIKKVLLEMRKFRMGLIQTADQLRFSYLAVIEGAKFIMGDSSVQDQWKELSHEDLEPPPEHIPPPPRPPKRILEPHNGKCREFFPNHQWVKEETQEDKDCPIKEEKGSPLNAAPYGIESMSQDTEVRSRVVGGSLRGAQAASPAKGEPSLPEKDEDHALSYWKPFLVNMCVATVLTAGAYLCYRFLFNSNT

For orientation: EC50 means the concentration needed to bring the measured effect to its halfway point. The term IC50 denotes the midpoint of a concentration-inhibition curve. For `CC(C)(C)CCNC[C@H]1Cc2c(cc(O)c(N3CC(=O)NS3(=O)=O)c2F)N1` [Compound 153, 5-[(2R)-2-{[(3,3-dimethylbutyl)amino]methyl}-4-fluoro-6-hydroxy-2,3-dihydro-1H-indol-5-yl]-1λ^6,2,5-thiadiazolidine-1,1,3-trione], the EC50 in test [1] amounted to 2.01 µM. Also, the half-inhibitory concentration (IC50) in test [2] and in test [3] was 0.01 to 0.1 µM throughout.
In the case of `CC(C)C1CC(CNC[C@H]2Cc3c(cc(O)c(N4CC(=O)NS4(=O)=O)c3F)N2)C1` (stereo partly drawn) [Compound 154, 5-{(2R)-4-fluoro-6-hydroxy-2-[({[3-(propan-2-yl)cyclobutyl]methyl}amino)methyl]-2,3-dihydro-1H-indol-5-yl}-1λ^6,2,5-thiadiazolidine-1,1,3-trione], the EC50 in test [1] came to 1.88 µM. The IC50 was less than 0.01 µM in test [2] and 0.01 to 0.1 µM in test [3].
Taken in the same sequence, the figures for `CC(C)CN(C)C[C@H]1Cc2c(cc(O)c(N3CC(=O)NS3(=O)=O)c2F)N1` [Compound 155, 5-[(2R)-4-fluoro-6-hydroxy-2-{[methyl(2-methylpropyl)amino]methyl}-2,3-dihydro-1H-indol-5-yl]-1λ^6,2,5-thiadiazolidine-1,1,3-trione] were 15.7 µM, 0.01 to 0.1 µM and 0.01 to 0.1 µM.

The values are drawn from US20250019374A1, “PROTEIN TYROSINE PHOSPHATASE INHIBITORS AND METHODS OF USE THEREOF” (Calico Life Sciences LLC, priority 2021, published 2025).
